{"source": "paper PMC11087268", "about": "“A folate inhibitor exploits metabolic differences in Pseudomonas aeruginosa for narrow-spectrum targeting” (Nature Microbiology, 2024)", "key": {"[1]": {"test_system": "Escherichia coli lptD4213", "experiment": "MIC against E. coli lptD4213 in LB broth", "type": "cell-based", "conditions": "LPTD4213, 16 h", "protocol": "(§1) Overnight cultures were diluted 1:150 in LB broth and added to a 96-well plate. Antibiotics were serially diluted 1:2 and added to columns of the 96-well plate and grown at 37 °C with continuous shaking. Cell growth was measured using optical density at 600 nm (OD600). MIC assays were performed in either BioTek Synergy HT or Tecan InfiniteM200 Pro microplate readers."}, "human DHFR": {"target": "T1, human DHFR (Homo sapiens, UniProt P00374)", "T1 construct": "purchased R&D Systems 8456-DR", "T1 sequence (P00374 1-187)": "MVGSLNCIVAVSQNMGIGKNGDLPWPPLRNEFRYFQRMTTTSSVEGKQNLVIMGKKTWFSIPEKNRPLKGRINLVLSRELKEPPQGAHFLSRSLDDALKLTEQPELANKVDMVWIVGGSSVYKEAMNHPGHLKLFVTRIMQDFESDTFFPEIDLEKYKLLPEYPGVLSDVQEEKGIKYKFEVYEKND", "experiment": "Human DHFR in vitro assay", "type": "biochemical", "conditions": "for Normalized activity to no drug control: human DHFR"}, "[2]": {"test_system": "P. aeruginosa clinical isolates", "type": "cell-based, Pseudomonas aeruginosa", "protocol": "Percent growth was calculated by dividing the OD600 of fluorofolin antibiotic-treated wells by that of vehicle-only wells."}, "[3]": {"experiment": "Serum (plasma protein) binding", "type": "in vitro ADME", "description": "An initial t = 0 sample was collected. […] Serum binding parameters were determined as follows: • % Bound = 100% − % Unbound • logK = log(% Bound/100 − % Bound) • % Remaining = Area-ratio6h/Area-ratio0h × 100% • % Recovery was determined as (Area-ratiobuffer-chamber + Area-ratioplasma-chamber)/(Area-ratiototal sample) × 100"}, "[4]": {"test_system": "WI-38 (embryonic lung tissue)", "experiment": "Mammalian cell cytotoxicity, WI-38", "type": "cell-based, human"}, "P. aeruginosa PA14": {"test_system": "P. aeruginosa PA14", "experiment": "Colony-forming units counting after antibiotic treatment", "type": "cell-based, Pseudomonas aeruginosa", "conditions": "for PA14 CFU/mL, Mean: 2× MIC (fluorofolin 6.2, TMP 250, polymixin B 4 μg ml^−1)", "protocol": "P. aeruginosa PA14 overnight cultures were diluted 1:100 and grown to exponential phase (OD600 = 0.4–0.6). Cultures were diluted 1:10 and treated with antibiotic. At each time point, 150 μl of culture was removed, serial diluted 1:10 six times and plated onto LB agar plates. Plates were grown overnight at 37 °C, after which visible colonies were counted. C.f.u.s ml^−1 are reported from dilutions in which ~10–100 single colonies were visible."}, "[5]": {"test_system": "Acinetobacter baumannii BAA-125", "experiment": "MIC against A. baumannii BAA-125 in LB broth", "type": "cell-based", "conditions": "BAA125, 16 h, 37 °C, OD600", "protocol": "as §1"}, "[6]": {"test_system": "Staphylococcus aureus NRS384", "experiment": "MIC (WuXi, Mueller–Hinton broth) against S. aureus NRS384", "type": "cell-based", "protocol": "Bacterial colonies (4–8) of strains of interest were vortexed in saline and adjusted to an OD600 of 0.2. Strains were diluted 1:200 into CAMHB media in 96-well plates. Antibiotics were serially diluted 1:3 in DMSO, and 1 μl of each dilution was added to bacteria. The plates were incubated for 18–20 h at 37 °C before observation."}, "sheep red blood cells": {"test_system": "sheep red blood cells", "experiment": "Haemolysis", "type": "cell-based", "conditions": "biologically relevant concentrations", "protocol": "(§2) Samples were treated at 37 °C with shaking for 1 h and then centrifuged. Supernatants were collected and absorbances were measured at 405 nm in a Tecan InfiniteM200 Pro microplate reader."}, "Haemolysis": {"experiment": "Haemolysis", "type": "cell-based, sheep", "conditions": "sheep, defibrinated sheep red blood cells, 1 h, vs Triton X-100 100% lysis", "protocol": "as §2"}, "E. coli MG1655": {"test_system": "E. coli MG1655", "experiment": "Growth competition assay, c.f.u. of E. coli MG1655", "type": "cell-based, Escherichia coli", "conditions": "for E.coli MG1655 CFU/mL: Panel C", "protocol": "Cultures of each species were grown separately as well as being mixed 1:1. […] The number of colonies on Pseudomonas Selection Agar plates is reported as the c.f.u. ml^−1 of P. aeruginosa. To calculate c.f.u.s ml^−1 of E. coli MG1655, c.f.u.s ml^−1 were determined from LB agar plates and the c.f.u.s ml^−1 of P. aeruginosa were subtracted from these values."}, "[7]": {"conditions": "mouse plasma, 1 μM, 6 h, dialysis"}}, "note": "Where “and” joins values, the source holds several entries; their conditions need not be identical. Identical values can stand only once. Like-named read-outs stand apart in the source and are kept apart here.", "data": [{"smiles": "Nc1nc(N)c2c(ccc3c2ccn3Cc2ccnc(F)c2)n1", "note": "[fluorofolin]", "values": [{"measurement": "MIC", "setting": "[1]", "result": 0.02, "unit": "µg/mL"}, {"measurement": "Normalized activity to no drug control", "setting": "human DHFR; Fluorofolin 0.12207 nM", "result": 1.039}, {"measurement": "Normalized activity to no drug control", "setting": "human DHFR; Fluorofolin 0.488281 nM", "result": 1.039}, {"measurement": "Normalized activity to no drug control", "setting": "human DHFR; Fluorofolin 1.95312 nM, replicates _1, _2", "result": "0.9215 and 1.02"}, {"measurement": "Normalized activity to no drug control", "setting": "human DHFR; Fluorofolin 7.8125 nM, replicates _1, _2", "result": "0.5724 and 0.64"}, {"measurement": "Normalized activity to no drug control", "setting": "human DHFR; Fluorofolin 31.25 nM, replicates _1, _2", "result": "0.387 and 0.4828"}, {"measurement": "Normalized activity to no drug control", "setting": "human DHFR; Fluorofolin 125 nM, replicates _1, _2", "result": "0.2567 and 0.2221"}, {"measurement": "Normalized activity to no drug control", "setting": "human DHFR; Fluorofolin 500 nM, replicates _1, _2", "result": "0.1373 and 0.1034"}, {"measurement": "Normalized activity to no drug control", "setting": "human DHFR; Fluorofolin 2000 nM, replicates _1, _2", "result": "0.03994 and 0.01531"}, {"measurement": "IC50", "setting": "human DHFR; purified human DHFR", "result": "0.014 ± 0.004", "unit": "µM"}, {"measurement": "isolates inhibited", "setting": "[2]", "result": 90, "unit": "%"}, {"measurement": "number of isolates inhibited", "setting": "[2]", "result": 69}, {"measurement": "sensitivity of isolates with dfrB2", "setting": "[2]", "result": "fluorofolin-sensitive"}, {"measurement": "number of resistant isolates", "setting": "[2]; 22 blood isolates, 50 μg ml^−1", "result": "None"}, {"measurement": "number of resistant isolates", "setting": "[2]; 55 CDC isolates, 50 μg ml^−1", "result": 8}, {"measurement": "clinical isolates resistant", "setting": "[2]; 77 P. aeruginosa clinical isolates (55 CDC/FDA, 22 blood), 50 μg ml^−1, growth inhibition >80% = sensitive", "result": 10.4, "unit": "%"}, {"measurement": "sensitivity of carbapenemase isolates", "setting": "[2]; clinical isolates expressing KPC-5 and NDM-1", "result": "remained sensitive"}, {"measurement": "clinical isolates resistant", "setting": "[2]; earlier manuscript version quoted by reviewers, antibiotic resistance isolate bank only", "result": 14.5, "unit": "%"}, {"measurement": "% Bound", "setting": "[3]; [7]", "result": 71.7000, "unit": "%"}, {"measurement": "% Recovery", "setting": "[3]; [7]", "result": 91.8800, "unit": "%"}, {"measurement": "% Unbound", "setting": "[3]; [7]", "result": 28.3000, "unit": "%"}, {"measurement": "fraction unbound at 6 h, 1 μM", "setting": "[3]; mouse plasma, 1 μM, 6 h, dialysis, read-out: % Bound (converted)", "result": 0.283}, {"measurement": "LogK", "setting": "[3]; mouse plasma, log(% Bound/(100 − % Bound))", "result": 0.4000}, {"measurement": "recovery at 6 h, 1 μM", "setting": "[3]; mouse, 1 μM, 6 h, dialysis", "result": 91.9, "unit": "%"}, {"measurement": "remaining at 6 h, 1 μM", "setting": "[3]; mouse, read-out: % Remaining after 6 hours", "result": 89.7, "unit": "%"}, {"measurement": "IC50", "setting": "[4]; Homo sapiens, WI-38, 72 h, CyQUANT, read-out: IC50 Fluorofolin", "result": 14.4, "unit": "µg/mL"}, {"measurement": "increase in IC50 compared with IRS-16", "setting": "[4]; WI-38 cells", "result": 58.5, "unit": "fold"}, {"measurement": "type of antibacterial activity", "setting": "P. aeruginosa PA14; PA14, rich media", "result": "bacteriostatic"}, {"measurement": "PA14 CFU/mL, Mean", "setting": "P. aeruginosa PA14; Time 0 h", "result": 197000, "unit": "CFU/mL"}, {"measurement": "PA14 CFU/mL, Mean", "setting": "P. aeruginosa PA14; Time 1 h", "result": 211000, "unit": "CFU/mL"}, {"measurement": "PA14 CFU/mL, Mean", "setting": "P. aeruginosa PA14; Time 2 h", "result": 171000, "unit": "CFU/mL"}, {"measurement": "PA14 CFU/mL, Mean", "setting": "P. aeruginosa PA14; Time 4 h", "result": 206667, "unit": "CFU/mL"}, {"measurement": "MIC", "setting": "[5]", "result": 31.2, "unit": "µg/mL"}, {"measurement": "MIC", "setting": "[6]", "result": 0.03, "unit": "µg/mL"}, {"measurement": "permeabilization of red blood cell membranes", "setting": "sheep red blood cells", "result": "did not cause significant permeabilization"}, {"measurement": "hemolysis at 1 h, 0.78125 ug/mL", "setting": "Haemolysis; 0.78125 ug/mL", "result": 0.966, "unit": "%"}, {"measurement": "hemolysis at 1 h, 1.5625 ug/mL", "setting": "Haemolysis; 1.5625 ug/mL", "result": 0.655, "unit": "%"}, {"measurement": "hemolysis at 1 h, 3.125 ug/mL", "setting": "Haemolysis; 3.125 ug/mL", "result": -0.334, "unit": "%"}, {"measurement": "hemolysis at 1 h, 6.25 ug/mL", "setting": "Haemolysis; 6.25 ug/mL", "result": 0.353, "unit": "%"}, {"measurement": "hemolysis at 1 h, 12.5 ug/mL", "setting": "Haemolysis; 12.5 ug/mL", "result": -0.799, "unit": "%"}, {"measurement": "hemolysis at 1 h, 25 ug/mL", "setting": "Haemolysis; 25 ug/mL", "result": -0.239, "unit": "%"}, {"measurement": "hemolysis at 1 h, 50 ug/mL", "setting": "Haemolysis; 50 ug/mL", "result": 13.7, "unit": "%"}, {"measurement": "growth in co-culture with TMI supplementation", "setting": "E. coli MG1655; PA14 : E. coli MG1655 1:1, 50 μg ml^−1 fluorofolin, selective plating", "result": "but not E. coli"}, {"measurement": "E.coli MG1655 CFU/mL", "setting": "E. coli MG1655; Fluorofolin", "result": 10, "unit": "CFU/mL"}, {"measurement": "E.coli MG1655 CFU/mL", "setting": "E. coli MG1655; Fluorofolin + TMI", "result": "1050000 CFU/mL and 1500000 CFU/mL and 1350000 CFU/mL"}]}]}
